The values below come from patent publication US10695346B2, “4,6-pyrimidinylene derivatives and uses thereof” (Dana-Farber Cancer Institute, Inc., priority 2015, dated 2020).

Assay [1] concerns TP53 wild type MCF7 cells. In words: Cell proliferation assay (Cell TITER-GLO). Particulars: even at 5 μM; FIG. 3D. (In general: ATP-based viability assays read luminescence as a measure of living cells.)
Experimental: To determine cell proliferation, cells were plated at 2×10^3 cells per well of 96-well plate. Cells were incubated and assayed at indicated times using Cell TITER-GLO Luminescent Cell Viability assay (Promega). Cells were allowed to equilibrate to room temperature for 15 minutes, then an equal volume of the Cell TITER-GLO reagent was added to wells and incubated for 15 minutes on an orbital shaker. Luminescence was recorded according to the manufacturer's protocol.
Assay [2] has as its target T1, PIP4K2A (Homo sapiens, UniProt P48426).
T1 sequence (P48426 1-406): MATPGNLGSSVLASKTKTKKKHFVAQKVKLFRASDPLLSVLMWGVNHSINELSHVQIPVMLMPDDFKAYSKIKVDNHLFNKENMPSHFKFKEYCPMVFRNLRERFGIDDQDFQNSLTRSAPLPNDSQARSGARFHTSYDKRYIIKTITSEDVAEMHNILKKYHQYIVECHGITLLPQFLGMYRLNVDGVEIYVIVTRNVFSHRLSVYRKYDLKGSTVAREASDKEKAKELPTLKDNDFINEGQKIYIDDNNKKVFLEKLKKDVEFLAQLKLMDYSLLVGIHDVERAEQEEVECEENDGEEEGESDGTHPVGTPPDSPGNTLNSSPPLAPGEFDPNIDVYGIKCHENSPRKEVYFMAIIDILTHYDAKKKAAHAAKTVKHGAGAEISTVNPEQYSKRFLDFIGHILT
In words: ADP-GLO assay on PIP4K2A. The class given is biochemical. Particulars: 0.01 mM ATP, 0.05 mM diC8 PI(5)P. How it is done:
After a further incubation of 40 minutes, 40 μl of Kinase Detection Buffer was added. After a further incubation of 40 min, the […] was read on […] ENVISION for 1 sec/well.
Background: ADP-Glo turns the ADP formed in a reaction into a luminescent signal.

What is called IC50 is the concentration that gives 50% inhibition.

For `CN(C)C/C=C/C(=O)Nc1ccc(C(=O)Nc2cccc(Nc3cc(-c4cnc5[nH]ccc5c4)ncn3)c2)cc1` [Compound 8, (E)-N-(3-((6-(1H-pyrrolo[2,3-b]pyridin-5-yl)pyrimidin-4-yl)amino)phenyl)-4-(4-(dimethylamino)but-2-enamido)benzamide], the “inhibition of TP53 wild type MCF7 cells” value in assay [1] is “didn't inhibit”.

In the case of `CN(C)C/C=C/C(=O)NC1CCCC(C(=O)Nc2cccc(Nc3cc(-c4cnc5[nH]ccc5c4)ncn3)c2)C1` (centres unmarked) [THZ-CE-A-4-9, (E)-N-(3-((6-(1H-pyrrolo[2,3-b]pyridin-5-yl)pyrimidin-4-yl)amino)phenyl)-3-(4-(dimethylamino)but-2-enamido)cyclohexane-1-carboxamide], in assay [2], half-maximal inhibition (IC50) required 250 nM.
